# Legend:
# Mus musculus [1] = organism: Mus musculus; assay: Reduction in amyloid beta levels in Tg2576 mouse; assay type: functional
# Mus musculus [2] = organism: Mus musculus; assay: Reduction in amyloid beta plaques in Tg2576 mouse; assay type: functional
# [3] = molecular target: Amyloid-beta precursor protein (Homo sapiens, UniProt P05067); assay: Inhibition of amyloid beta (1 to 40) (unknown origin) aggregation
# Amyloid-beta precursor protein, sequence (P05067 whole entry): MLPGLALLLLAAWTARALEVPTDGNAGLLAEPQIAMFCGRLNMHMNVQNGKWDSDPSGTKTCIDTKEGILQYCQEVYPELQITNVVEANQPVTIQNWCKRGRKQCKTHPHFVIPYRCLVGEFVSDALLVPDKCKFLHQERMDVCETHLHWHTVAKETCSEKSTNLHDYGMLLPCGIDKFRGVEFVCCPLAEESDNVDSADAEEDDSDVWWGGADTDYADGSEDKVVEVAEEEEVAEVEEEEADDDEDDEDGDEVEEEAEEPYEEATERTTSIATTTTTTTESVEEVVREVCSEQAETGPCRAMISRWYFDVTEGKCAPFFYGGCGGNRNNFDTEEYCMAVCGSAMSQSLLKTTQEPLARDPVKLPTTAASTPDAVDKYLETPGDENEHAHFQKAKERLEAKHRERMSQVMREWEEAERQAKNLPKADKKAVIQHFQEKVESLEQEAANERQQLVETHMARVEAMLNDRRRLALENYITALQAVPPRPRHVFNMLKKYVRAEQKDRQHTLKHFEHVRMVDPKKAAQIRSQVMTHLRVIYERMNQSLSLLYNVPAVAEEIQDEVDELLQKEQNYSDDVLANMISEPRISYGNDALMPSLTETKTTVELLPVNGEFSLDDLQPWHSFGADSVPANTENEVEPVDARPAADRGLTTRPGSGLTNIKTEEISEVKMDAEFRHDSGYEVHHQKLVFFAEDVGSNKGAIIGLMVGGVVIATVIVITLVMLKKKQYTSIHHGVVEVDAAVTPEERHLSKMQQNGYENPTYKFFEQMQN
IC50 [3],Compound,inhibition (INH) (Mus musculus [1]),inhibition (INH) (Mus musculus [2])
–,O=C(O[C@@H]1Cc2c(O)cc(O)cc2O[C@@H]1c1cc(O)c(O)c(O)c1)c1cc(O)c(O)c(O)c1 [EPIGALOCATECHIN GALLATE],50%,50%
2750 nM,CNc1ccc(C(=O)NC(CCCCCNC(=O)OCc2ccccc2)C(=O)O)cc1 (centres undefined),–,–
1950 nM,O=C(Cc1ccccc1)NC(CSSCC(NC(=O)Cc1ccccc1)C(=O)O)C(=O)O (centres undefined),–,–

# Reference: ChEMBL document CHEMBL3400095, “β-sheet interfering molecules acting against β-amyloid aggregation and fibrillogenesis” (Bioorg Med Chem, 2015)
